Columns and labels:
VEGFR-2 (KDR) = target: T1, VEGFR-2 (KDR) (Homo sapiens, UniProt P35968); assay: VEGFR-2 kinase assay kit (Kinase-Glo MAX); assay type: biochemical
T1 construct: purchased
Method: (§1) The receptor tyrosine kinases, namely EGFR, VEGFR-2, and PDGFR_ẞ Kinases Assay Kits, are designed to measure EGFR, VEGFR-2, and PDGFR_ẞ Kinases’ activities for screening and profiling applications using Kinase-Glo® MAX as a detection reagent. The EGFR, VEGFR-2, and PDGFR_ẞ Kinases Assay Kits come in a convenient 96-well format, with enough purified recombinant EGFR enzyme, EGFR substrate, ATP, and kinase assay buffer for 100 enzyme reactions. The master mixture (25 µl per well) was equipped out of Kinase assay buffer (6 µl), ATP (500 µM, 1 µl), PTK substrate (50x, 1 µl), and water (17 µl) and transferred into each well. […] EGFR, VEGFR-2, and PDGFR_ẞ Kinases were softened on ice. Its tube was spun briefly to recover its full content of the tube. These enzymes were diluted with 1 × Kinase assay buffer to 1 ng/ µl. The reaction was initiated by adding 20 µl of diluted EGFR, VEGFR-2, and PDGFR_ẞ enzymes to the wells designated “Positive Control” and “Test Inhibitor Control.” The plate was incubated at 30 °C for 40 min. After the 40-min reaction, the Kinase-Glo Max (50 µl) reagent was added to each well. The plate was covered with aluminum foil and incubated at room temperature for 15 min, and the luminescence was measured using the microplate reader.

PDGFR_ẞ = target: T2, PDGFR_ẞ (Homo sapiens, UniProt P09619); assay: PDGFR_ẞ kinase assay kit (Kinase-Glo MAX); assay type: biochemical
T2 construct: purchased
Method: as §1

MCF-7 cells = assay: Cell cycle analysis by DNA flow cytometry; assay type: cell-based, human
Method: MCF-7 Cells were placed in a six-well plate at 1 × 10^5 concentration of cells/well and then kept for incubation for 24 h. […] Cells were then collected and fixed for 12 h using ice-cold 70% ethanol at 4 °C. Ethanol was then removed, and cells were washed with cold phosphate buffer saline (PBS, 0.5 ml) and preserved for 30 min at 37 °C. The cells were stained for 30 min with propidium iodide in the dark. A flow cytometer was used to detect DNA content.

[1] = tested on: NCI/ADR-RES (ovarian cancer cell line); assay: NCI one-dose assay, NCI/ADR-RES; assay type: cell-based; settings: Homo sapiens; NCI/ADR-RES; 10 µM single dose, 48 h incubation; read-out: cell growth inhibition % (GI %)
Method: All novel scaffolds 6a–j were carefully selected by the National Cancer Institute (NCI), Bethesda, USA, to elucidate their cytotoxic activity versus 60 human cancer cell lines at 10 µM as a single-dose concentration after a 48 h incubation period.
National Cancer Institution selected all the synthesized 6a–j (NCI), Bethesda, USA, for in vitro one-dose antitumor assay. The methodology protocol for the NCI anticancer screening was reported in detail elsewhere (http://www.dtp.nci.nih.gov). The anticancer assay was performed in full NCI 60 cell lines extracted from nine tumor cell lines, including leukemia, melanoma, lung, colon, CNS, ovarian, renal, prostate, and breast cancer cell lines.

T1 sequence (P35968 20-1356): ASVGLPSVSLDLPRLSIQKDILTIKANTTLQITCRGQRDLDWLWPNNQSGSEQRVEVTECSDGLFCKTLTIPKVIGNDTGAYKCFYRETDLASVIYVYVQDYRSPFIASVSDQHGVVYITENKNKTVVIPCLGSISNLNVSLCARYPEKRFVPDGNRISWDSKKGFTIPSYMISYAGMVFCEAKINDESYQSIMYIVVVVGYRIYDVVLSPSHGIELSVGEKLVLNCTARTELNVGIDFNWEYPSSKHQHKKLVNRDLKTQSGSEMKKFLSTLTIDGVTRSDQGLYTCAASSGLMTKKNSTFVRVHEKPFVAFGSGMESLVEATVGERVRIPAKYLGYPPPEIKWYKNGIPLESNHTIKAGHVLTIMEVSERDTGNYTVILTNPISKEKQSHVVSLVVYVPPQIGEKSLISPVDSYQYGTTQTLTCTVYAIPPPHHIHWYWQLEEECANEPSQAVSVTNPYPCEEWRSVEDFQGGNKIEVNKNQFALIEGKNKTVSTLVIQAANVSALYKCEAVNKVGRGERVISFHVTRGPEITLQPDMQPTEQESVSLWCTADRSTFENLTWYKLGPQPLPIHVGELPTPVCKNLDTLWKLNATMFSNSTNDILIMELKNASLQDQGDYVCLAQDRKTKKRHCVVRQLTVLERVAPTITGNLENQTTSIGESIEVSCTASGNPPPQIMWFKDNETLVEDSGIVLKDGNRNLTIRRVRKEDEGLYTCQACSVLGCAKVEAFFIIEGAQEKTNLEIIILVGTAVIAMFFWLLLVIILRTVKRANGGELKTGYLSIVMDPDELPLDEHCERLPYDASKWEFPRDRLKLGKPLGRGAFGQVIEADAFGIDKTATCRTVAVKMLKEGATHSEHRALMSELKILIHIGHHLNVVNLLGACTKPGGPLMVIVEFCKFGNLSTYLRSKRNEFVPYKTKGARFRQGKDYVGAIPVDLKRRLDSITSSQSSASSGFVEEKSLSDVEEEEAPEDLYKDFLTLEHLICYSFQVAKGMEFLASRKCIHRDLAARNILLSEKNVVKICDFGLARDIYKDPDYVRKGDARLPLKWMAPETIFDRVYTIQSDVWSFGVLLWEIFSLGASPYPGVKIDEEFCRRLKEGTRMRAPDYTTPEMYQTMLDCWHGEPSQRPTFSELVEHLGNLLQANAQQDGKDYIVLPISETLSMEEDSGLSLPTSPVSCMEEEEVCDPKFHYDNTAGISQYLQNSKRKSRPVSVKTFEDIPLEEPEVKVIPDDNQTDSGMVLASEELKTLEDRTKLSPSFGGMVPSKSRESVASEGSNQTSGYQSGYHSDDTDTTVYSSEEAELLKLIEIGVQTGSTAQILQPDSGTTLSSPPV
T2 sequence (P09619 33-1106, species assumed): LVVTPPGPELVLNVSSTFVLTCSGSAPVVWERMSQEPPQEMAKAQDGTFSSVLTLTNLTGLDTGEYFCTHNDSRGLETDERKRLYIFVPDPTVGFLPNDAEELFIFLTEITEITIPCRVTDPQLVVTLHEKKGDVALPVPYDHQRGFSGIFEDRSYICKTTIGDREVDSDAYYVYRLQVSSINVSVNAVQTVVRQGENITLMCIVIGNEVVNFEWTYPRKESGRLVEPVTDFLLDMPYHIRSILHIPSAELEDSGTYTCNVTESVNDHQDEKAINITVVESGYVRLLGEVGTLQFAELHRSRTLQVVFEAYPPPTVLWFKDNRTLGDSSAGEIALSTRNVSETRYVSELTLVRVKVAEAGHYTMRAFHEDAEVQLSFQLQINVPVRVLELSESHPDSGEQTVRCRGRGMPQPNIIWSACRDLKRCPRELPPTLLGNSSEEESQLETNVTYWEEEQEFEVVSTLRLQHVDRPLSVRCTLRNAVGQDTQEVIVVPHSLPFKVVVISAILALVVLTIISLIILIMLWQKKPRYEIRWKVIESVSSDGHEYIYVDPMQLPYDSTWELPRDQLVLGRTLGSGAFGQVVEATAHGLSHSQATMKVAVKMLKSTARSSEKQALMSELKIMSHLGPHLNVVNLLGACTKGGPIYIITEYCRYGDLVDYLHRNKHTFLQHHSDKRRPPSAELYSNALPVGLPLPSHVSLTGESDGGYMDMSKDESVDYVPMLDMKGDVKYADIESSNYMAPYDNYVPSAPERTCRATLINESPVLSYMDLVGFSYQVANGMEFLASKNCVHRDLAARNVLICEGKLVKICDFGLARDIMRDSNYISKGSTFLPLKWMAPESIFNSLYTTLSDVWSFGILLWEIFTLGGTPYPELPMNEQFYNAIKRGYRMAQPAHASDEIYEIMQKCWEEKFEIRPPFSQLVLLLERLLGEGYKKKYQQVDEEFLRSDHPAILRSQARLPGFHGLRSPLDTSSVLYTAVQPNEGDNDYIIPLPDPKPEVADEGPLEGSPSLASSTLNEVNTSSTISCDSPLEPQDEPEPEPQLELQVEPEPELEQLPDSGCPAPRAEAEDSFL

SMILES | %inh VEGFR-2 (VEGFR-2 (KDR); conc 0.01 (unit not given)) | %inh VEGFR-2 (VEGFR-2 (KDR); conc 0.1 (unit not given)) | %inh VEGFR-2 (VEGFR-2 (KDR); conc 1 (unit not given)) | %inh VEGFR-2 (VEGFR-2 (KDR); conc 10 (unit not given)) | IC50 (VEGFR-2 (KDR); read-out: VEGFR-2 inhibition (IC50 ± SD)) | %inh PDGFRβ (PDGFR_ẞ; conc 0.01 (unit not given)) | %inh PDGFRβ (PDGFR_ẞ; conc 0.1 (unit not given)) | %inh PDGFRβ (PDGFR_ẞ; conc 1 (unit not given)) | %inh PDGFRβ (PDGFR_ẞ; conc 10 (unit not given)) | IC50 (PDGFR_ẞ; read-out: PDGFR_ẞ inhibition (IC50 ± SD)) | cell cycle arrest phase (MCF-7 cells; MCF-7 cells, flow cytometry) | Freq G1 (percentage of cells) (MCF-7 cells; MCF-7 treated with IC50 of compound 6f (19.43 μM in method), 24 h, control 40.68) | melting point | inhibition at 10 µM [1]
O=C1Nc2ccccc2C1=Cc1ccc(OCC(=O)c2ccc(Br)cc2)cc1 [Compound 6f, 3-{4-[2-(4-Bromophenyl)-2-oxoethoxy]benzylidene}indolin-2-one] | 12.36% | 36.13% | 73.94% | 88.74% | 5.75 ± 0.011 µM | 25.63% | 40.59% | 70.36% | 88.18% | 3.18 ± 0.007 µM | G0–G1phase | 51.30% |  | 
O=C1Nc2cc(Cl)ccc2C1=Cc1ccc(OCC(=O)c2ccc(Br)cc2)cc1 [Compound 6g, 6-Chloro-3-{4-[2-(4-bromophenyl)-2-oxoethoxy]benzylidene}indolin-2-one] |  |  |  |  |  |  |  |  |  |  |  |  | 249 to 251 °C | 52.2%

Reference: PMC11070402, “New antiproliferative 3-substituted oxindoles inhibiting EGFR/VEGFR-2 and tubulin polymerization” (Molecular Diversity, 2023)
